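Step 1: Grow cells in 96-well plates. Step 2: Expose to compound for 48 hours at 5 concentrations. Step 3: Interpolate endpoints linearly; if unreached, use highest concentration. The concentration for 50% growth inhibition is given as GI50. TGI: total growth inhibition.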
What was measured:
Experiment in all cases: growth of human tumour cells (NCI), 48 h
OVCAR-4 ovarian = tested on: OVCAR-4 ovarian
SK-MEL-2 melanoma = tested on: SK-MEL-2 melanoma
MCF7 breast = tested on: MCF7 breast
NCI/ADR-RES ovarian = tested on: NCI/ADR-RES ovarian
ACHN renal = tested on: ACHN renal
COLO 205 colon = tested on: COLO 205 colon
SK-MEL-28 melanoma = tested on: SK-MEL-28 melanoma
MALME-3M melanoma = tested on: MALME-3M melanoma
RPMI-8226 leukemia = tested on: RPMI-8226 leukemia
A498 renal = tested on: A498 renal
LOX IMVI melanoma = tested on: LOX IMVI melanoma
KM12 colon = tested on: KM12 colon
PC-3 prostate = tested on: PC-3 prostate
SNB-19 CNS = tested on: SNB-19 CNS
TK-10 renal = tested on: TK-10 renal
NCI-H460 lung = tested on: NCI-H460 lung
NCI-H226 lung = tested on: NCI-H226 lung
OVCAR-3 ovarian = tested on: OVCAR-3 ovarian
UACC-257 melanoma = tested on: UACC-257 melanoma
A549 NSCLC = tested on: A549 NSCLC
SW-620 colon = tested on: SW-620 colon
HCT-15 colon = tested on: HCT-15 colon
SF-539 CNS = tested on: SF-539 CNS
CAKI-1 renal = tested on: CAKI-1 renal
SF-295 CNS = tested on: SF-295 CNS
M14 melanoma = tested on: M14 melanoma
HS 578T breast = tested on: HS 578T breast
OVCAR-8 ovarian = tested on: OVCAR-8 ovarian
UACC-62 melanoma = tested on: UACC-62 melanoma
CCRF-CEM leukemia = tested on: CCRF-CEM leukemia
OVCAR-5 ovarian = tested on: OVCAR-5 ovarian
HT29 colon = tested on: HT29 colon
HCT-116 colon = tested on: HCT-116 colon
UO-31 renal = tested on: UO-31 renal
HOP-62 NSCLC = tested on: HOP-62 NSCLC
DU-145 prostate = tested on: DU-145 prostate
NCI-H23 lung = tested on: NCI-H23 lung
EKVX NSCLC = tested on: EKVX NSCLC
T-47D breast = tested on: T-47D breast
786-0 renal = tested on: 786-0 renal
SK-OV-3 ovarian = tested on: SK-OV-3 ovarian
RXF 393 renal = tested on: RXF 393 renal
IGROV1 ovarian = tested on: IGROV1 ovarian
SF-268 CNS = tested on: SF-268 CNS
MDA-MB-231 breast = tested on: MDA-MB-231 breast
U251 CNS = tested on: U251 CNS
SN12C renal = tested on: SN12C renal
NCI-H522 lung = tested on: NCI-H522 lung
MDA-MB-435 = tested on: MDA-MB-435
SK-MEL-5 melanoma = tested on: SK-MEL-5 melanoma

## C[C@H](CCCOS(C)(=O)=O)[C@H]1CC[C@H]2[C@@H]3CC[C@@H]4C[C@H](OS(C)(=O)=O)CC[C@]4(C)[C@H]3CC[C@]12C
OVCAR-4 ovarian
  GI50: 1.85 mM
  TGI: > 2.5 mM
SK-MEL-2 melanoma
  GI50: 989 µM
  TGI: > 2.5 mM
MCF7 breast
  GI50: 323 µM
  TGI: 692 µM
NCI/ADR-RES ovarian
  GI50: 10.5 µM
ACHN renal
  GI50: 395 µM
COLO 205 colon
  GI50: 1.13 mM
  TGI: > 2.5 mM
SK-MEL-28 melanoma
  GI50: 1.06 mM
  TGI: > 2.5 mM
MALME-3M melanoma
  GI50: 994 µM
RPMI-8226 leukemia
  GI50: 69.9 µM
  TGI: 1.26 mM
A498 renal
  GI50: 664 µM
LOX IMVI melanoma
  GI50: 483 µM
  TGI: 1.27 mM
KM12 colon
  GI50: 1.23 mM
  TGI: > 2.5 mM
PC-3 prostate
  GI50: 852 µM
SNB-19 CNS
  GI50: 929 µM
  TGI: > 2.5 mM
TK-10 renal
  GI50: 607 µM
NCI-H460 lung
  GI50: 597 µM
  TGI: 2.08 mM
NCI-H226 lung
  GI50: 418 µM
OVCAR-3 ovarian
  GI50: 2.17 mM
UACC-257 melanoma
  GI50: 816 µM
  TGI: > 2.5 mM
A549 NSCLC
  GI50: 793 µM
SW-620 colon
  GI50: > 2.5 mM
  TGI: > 2.5 mM
HCT-15 colon
  GI50: 1.02 mM
  TGI: > 2.5 mM
SF-539 CNS
  GI50: 586 µM
CAKI-1 renal
  GI50: 954 µM
SF-295 CNS
  GI50: 532 µM
  TGI: 1.34 mM
M14 melanoma
  GI50: 706 µM
  TGI: > 2.5 mM
HS 578T breast
  GI50: 423 µM
OVCAR-8 ovarian
  GI50: 582 µM
UACC-62 melanoma
  GI50: 710 µM
CCRF-CEM leukemia
  GI50: > 2.5 mM
  TGI: > 2.5 mM
OVCAR-5 ovarian
  GI50: 391 µM
  TGI: > 2.5 mM
HT29 colon
  GI50: 1.92 mM
  TGI: > 2.5 mM
HCT-116 colon
  GI50: 532 µM
  TGI: 1.24 mM
UO-31 renal
  GI50: > 2.5 mM
  TGI: > 2.5 mM
HOP-62 NSCLC
  GI50: 493 µM
DU-145 prostate
  GI50: 1.16 mM
NCI-H23 lung
  GI50: 286 µM
EKVX NSCLC
  GI50: 865 µM
  TGI: > 2.5 mM
T-47D breast
  GI50: 1.04 mM
  TGI: > 2.5 mM
786-0 renal
  GI50: 523 µM
SK-OV-3 ovarian
  GI50: > 2.5 mM
RXF 393 renal
  GI50: 367 µM
  TGI: > 2.5 mM
IGROV1 ovarian
  GI50: 518 µM
  TGI: 1.45 mM
SF-268 CNS
  GI50: 590 µM
MDA-MB-231 breast
  GI50: 503 µM
U251 CNS
  GI50: 356 µM
SN12C renal
  GI50: 799 µM
NCI-H522 lung
  GI50: 398 µM
  TGI: 961 µM
MDA-MB-435
  GI50: 1.14 mM
SK-MEL-5 melanoma
  GI50: 1.11 mM
  TGI: > 2.5 mM
